From publication PMC9821843, “Powerful Potential of Polyfluoroalkyl-Containing 4-Arylhydrazinylidenepyrazol-3-ones for Pharmaceuticals” (Molecules, 2022)
Converted amounts (≈) assume the structure as drawn. Like-named read-outs stand apart in the source and are kept apart here.

Tests used:
[1] = biological target: T1, equine serum butyrylcholinesterase (BChE, EC 3.1.1.8) (Equus caballus, UniProt P81908); assay: Inhibition of equine serum butyrylcholinesterase (Ellman assay); type: biochemical; conditions: read-out: Inhibition % at 20 µM, Equine BChE
T1 construct: equine serum butyrylcholinesterase (BChE, EC 3.1.1.8); purchased Sigma-Aldrich (Saint Louis, MO, USA); host or cells: equine serum
T1 sequence (P81908 whole entry): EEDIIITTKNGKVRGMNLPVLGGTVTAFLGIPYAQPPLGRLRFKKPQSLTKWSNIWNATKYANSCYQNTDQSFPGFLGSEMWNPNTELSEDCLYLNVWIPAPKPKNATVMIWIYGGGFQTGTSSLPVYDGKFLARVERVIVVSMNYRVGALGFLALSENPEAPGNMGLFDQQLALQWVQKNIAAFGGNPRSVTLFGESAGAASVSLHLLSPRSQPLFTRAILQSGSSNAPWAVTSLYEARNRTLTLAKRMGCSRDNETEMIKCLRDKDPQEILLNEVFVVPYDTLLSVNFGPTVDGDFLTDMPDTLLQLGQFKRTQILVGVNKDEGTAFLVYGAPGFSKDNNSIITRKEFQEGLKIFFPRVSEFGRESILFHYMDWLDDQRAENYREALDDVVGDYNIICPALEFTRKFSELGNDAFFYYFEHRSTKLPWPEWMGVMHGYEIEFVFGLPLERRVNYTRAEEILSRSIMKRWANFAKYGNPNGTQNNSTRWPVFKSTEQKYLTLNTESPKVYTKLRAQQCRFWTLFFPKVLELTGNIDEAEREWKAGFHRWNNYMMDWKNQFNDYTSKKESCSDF
From the text: The following enzymes were purchased from Sigma-Aldrich (Saint Louis, MO, USA): porcine liver carboxylesterase (CES, EC 3.1.1.1), human erythrocyte acetylcholinesterase (AChE, EC 3.1.1.7) and equine serum butyrylcholinesterase (BChE, EC 3.1.1.8). Substrates for CES, AChE and BChE were 4-nitrophenyl acetate (4-NPA), acetylthiocholine iodide (ATCh) and butyrylthiocholine iodide (BTCh), respectively, and the colorimetric reagent for the AChE and BChE assays was 5,5’-dithio-bis-(2-nitrobenzoic acid) (DTNB) (Sigma-Aldrich). All the kinetic experiments were performed under standard conditions, according to the protocol of IPAC RAS for a reversible inhibitors study.
Final concentrations of reactants were 0.33 mM DTNB, 0.02 unit/mL of AChE or BChE and 1 mM of substrate (ATCh or BTCh, respectively). Reagent blanks consisted of reaction mixtures without enzyme to assess non-enzymatic hydrolysis of substrates.
Test compounds were dissolved in DMSO. Reaction mixtures contained a final DMSO concentration of 2% (v/v). […] Substrate was then added and residual enzyme activity relative to an inhibitor-free control was measured using a Bio-Rad Benchmark Plus microplate reader (Marnes-la-Coquette, France).
Measurements were performed in a Bio-Rad Benchmark Plus microplate reader. Each experiment was performed in triplicate. Plots, linear regressions and values of IC50, were determined using Origin 6.1 for Windows, OriginLab (Northampton, MA, USA).

[2] = ABTS radical cation scavenging activity assay; design: key to ABTS•+-scavenging activity, TEAC (trolox equivalent antioxidant capacity): TEAC = ratio of compound slope to Trolox slope vs ABTS absorbance; conditions: mean ± SEM; for ABTS•+-scavenging activity, TEAC (trolox equivalent antioxidant capacity): n.a. = inactive
Experimental: Radical scavenging activity of the compounds was evaluated by the ABTS radical cation (ABTS^•+) scavenging assay by the ability of the compounds to decolorize the ABTS^•+ solution [112] with some modifications. Trolox was used as a reference standard. Edaravone was used as the comparison compound. All tested compounds and standards were dissolved in DMSO. ABTS (2,2′-azinobis-(3-ethylbenzothiazoline-6-sulfonic acid)) was purchased from Tokyo Chemical Industry Co. Ltd. (Tokyo, Japan). Potassium persulfate (di-potassium peroxdisulfate), Trolox® (6-hydroxy-2,5,7,8-tetramethychroman-2-carboxylic acid), ascorbic acid, DMSO and HPLC-grade ethanol were obtained from Sigma-Aldrich Chemical Co. Aqueous solutions were prepared using deionized water.
The solution of ABTS^•+ was produced by mixing 7 mM ABTS aqueous solution with 2.45 mM potassium persulfate aqueous solution in equal quantities and allowing them to react for 12–16 h at room temperature in the dark. Radical scavenging capacity of the compounds was analyzed by mixing 10 μL of compound with 240 μL of ABTS^•+ working solution in ethanol (100 μM final concentration), and after 1 h of incubation at 30 °C the decrease in absorbance was measured spectrophotometrically at 734 nm using a Bio-Rad xMark microplate UV/VIS spectrophotometer (Bio-Rad, Hercules, CA, USA). The compounds were tested in the concentration range of 5 × 10^–7–4 × 10^–4 M. Ethanol blanks were run in each assay. Values were obtained from five replicates of each sample and three independent experiments.
Antioxidant activity was calculated as Trolox equivalent antioxidant capacity (TEAC values), consisting of the ratio between the slopes obtained from the linear correlation for concentrations of the tested compounds and Trolox with absorbance of ABTS radical. For the test compounds, which reduce ABTS^•+ absorbance by more than 60% at 100 µM, we also determined IC50 values as 50% reduction of the ABTS radical. The calculations were carried out using Origin 6.1 for Windows. Results were presented as mean ± SEM, calculated using GraphPad Prism version 6.05 for Windows, GraphPad Software.

[3] = Oxygen radical absorbance capacity (ORAC-FL) assay; conditions: n.a. = inactive; i.t.s. = interferes with test system
From the text: We evaluated the primary antioxidant activity of synthesized 4-AHPs 5–9 in comparison with their non-fluorinated analogues 9a,b using three standard tests: ABTS, FRAP (ferric reducing antioxidant power) and ORAC (oxygen radical absorbance capacity) assays. The ABTS assay evaluates the binding of a model ABTS radical cation (ABTS^•+), which is realized by the mechanism of single electron transfer (SET) and/or hydrogen atom transfer (HAT). The FRAP assay measures the ability of compounds to reduce the ferric 2,4,6-tripyridyl-s-triazine complex [Fe(TPTZ)2]^3+ to [Fe(TPTZ)2]^2+, which occurs exclusively by the SET mechanism. The ORAC-FL assay measures the oxidative degradation of the fluorescent molecule (FL – fluorescein) after being mixed with a free peroxyl radical generator such as 2,2′-azobis-(2-methylpropionamidine) dihydrochloride (AAPH) in the presence of antioxidant (tested compound). The ORAC-FL test describes the antioxidants’ ability to yield the hydrogen atom and, consequently, it is a HAT-based assay. Trolox was used in all tests as a reference antioxidant: the antioxidant activity of the test compounds was referred to the activity of Trolox. The well-known antioxidant Edaravone was also used for comparison.
The ORAC assay was performed according to the known method, with minor variations and described by us recently.

[4] = test system: Neisseria gonorrhoeae ATCC 49226/NCTC 12700; assay: Antibacterial activity against Neisseria gonorrhoeae; type: cell-based; conditions: read-out: MIC against Neisseria gonorrhoeae
Experimental: Antibacterial activity testing was done on the growth medium Difco GC medium base (Becton Dickinson, Franklin Lakes, NJ, USA) supplemented with 1% IsoVitaleX. Dilutions of chemical compounds were carried out in the range of 250–0.12 μg/mL in 24 well sterile plates (Sarstedt, Germany). Daily cultures of control bacterial strains were identified on a VITEK MS analyzer (BioMérieux, Marcy-l’Étoile, France) by MALDI-TOF mass spectrometry. The inoculation dose of N. gonorrhoeae inoculum was 10^5 CFU/mL.

[5] = Acute toxicity evaluation in mice (ip); conditions: CD-1, mouse, in vivo, 300 mg/kg
Experimental: The toxicity evaluation was performed on CD-1 mice. […] The tested compounds in 1% starch mucilage were injected intraperitoneally into three mice. Then, animals were observed during 14 days, the number of deaths was counted and % of viability calculated.

Sprague-Dawley (SD) rats = assay: Hot plate test (analgesic activity); type: in vivo; conditions: ip; for change in vivo at 15 mg/kg: Rattus norvegicus
Experimental: The hot plate test was conducted according to established guidelines on Sprague-Dawley (SD) rats (3 male and 3 female rodents per group). The compounds were intraperitoneally administered in the form of suspensions in 1% starch mucilage. Negative control group animals received vehicle only (1% starch mucilage). Diclofenac sodium (Hemofarm, Vršac, Serbia, 10 mg/kg in 1% starch mucilage solution) or metamizole sodium (PAO Biosynthesis, Sun Pharma, Penza, Russia, 15 mg/kg in 1% starch mucilage solution) were used as reference drugs. One and two hours after the injection, rats were placed on an electrically heated to 50 °C plate (Hot plate 60,200 series, TSE-systems, Bad Homburg, Germany) in a Plexiglas cylindrical restrainer (19 cm diameter × 30 cm). The nociceptive response time was measured by observing the appearance of rats’ movements (e.g., jumping, hind paw licking or shaking). Maximal cutoff time was set as 30 s regardless of the response in order to preclude skin damage.
Differences between the values of the latency period for the treated (experimental) and control groups of animals were considered significant at p ≤ 0.05.

[6] = test system: Microsporum canis RCPF F 1643/1585; assay: Antifungal susceptibility testing, M. canis; conditions: Microsporum canis, RCPFF1643/1585, read-out: MIC for fungi strains inhibition, M. canis
From the text: (§1) The solvent was DMSO. […] In each test, a growth control and a sterility control were used.

[7] = test system: Trichophyton rubrum RCPF F 1408; assay: Antifungal susceptibility testing, T. rubrum; conditions: Trichophyton rubrum, RCPFF1408, read-out: MIC for fungi strains inhibition, T. rubrum
From the text: as §1

[8] = test system: Candida albicans RCPF Y 401/NCTC 885/653; assay: Antifungal susceptibility testing, C. albicans; conditions: NCTC885, read-out: MIC for fungi strains inhibition, C. albicans
From the text: as §1

[9] = test system: Epidermophyton floccosum RCPF F 1659/17; assay: Antifungal susceptibility testing, E. floccosum; conditions: Epidermophyton floccosum, RCPFF1659/17, read-out: MIC for fungi strains inhibition, E. floccosum
From the text: as §1

[10] = hot plate test, rats, dose 15 mg/kg, 1 h, n.a. = inactive (p > 0.05), read-out: Latent Period Prolongation, % 1 h
[11] = hot plate test, rats, dose 15 mg/kg, 2 h, n.a. = inactive (p > 0.05), read-out: Latent Period Prolongation, % 2 h

Structure (SMILES)	inhibition at 20 µM [1] [%]	ABTS•+-scavenging activity, TEAC (trolox equivalent antioxidant capacity) [2]	ORAC-FL (TE, antioxidant activity in Trolox equivalents) [3]	MIC [4] [µg/mL]	survival at 14 days [5] [%]	change in vivo at 15 mg/kg (Sprague-Dawley (SD) rats; [10]) [%]	change in vivo at 15 mg/kg (Sprague-Dawley (SD) rats; [11]) [%]	MIC [6] [µg/mL]	MIC [7] [µg/mL]	MIC [8] [µg/mL]	MIC [9] [µg/mL]	analgesic activity in the hot plate test (Sprague-Dawley (SD) rats; SD rats, dose 15 mg/kg, 1 and 2 h)	IC50 [2] [µM]	change in vivo at 15 mg/kg (Sprague-Dawley (SD) rats; 1 h, read-out: Latent Period Prolongation, % 1 h) [%]	change in vivo at 15 mg/kg (Sprague-Dawley (SD) rats; 2 h, read-out: Latent Period Prolongation, % 2 h) [%]
O=C1/C(=N\Nc2ccccc2)C(C(F)(F)F)=NN1c1ccccc1 [5e, (4Z)-2-Phenyl-4-(2-phenylhydrazinylidene)-5-(trifluoromethyl)-2,4-dihydro-3H-pyrazol-3-one]	5.1 ± 0.9	0.02	i.t.s.	> 250	100	100	129	200 (≈ 602 µM)	200 (≈ 602 µM)	> 200	200 (≈ 602 µM)				
O=C1/C(=N\Nc2c(Cl)cccc2Cl)C(C(F)(F)F)=NN1c1ccccc1 [5j, (4Z)-4-[2-(2,6-Dichlorophenyl)hydrazinylidene]-2-phenyl-5-(trifluoromethyl)-2,4-dihydro-3H-pyrazol-3-one]	7.1 ± 1.2			31.2 (≈ 77.8 µM)	100			> 200	> 200	> 200	> 200	inactive			
NS(=O)(=O)c1ccc(N/N=C2\C(=O)N(c3ccccc3)N=C2C(F)(F)F)cc1 [5n, (4Z)-4-(2-[4-(Aminosulfonyl)phenyl]hydrazinylidene)-2-phenyl-5-(trifluoromethyl)-2,4-dihydro-3H-pyrazol-3-one]	3.5 ± 0.6		i.t.s.		100		84								
Cc1ccc(N/N=C2\C(=O)N(c3ccc(C)cc3)N=C2C(F)(F)F)cc1 [5r, (4Z)-2-(4-Methylphenyl)-4-[2-(4-methylphenyl)hydrazinylidene]-5-(trifluoromethyl)-2,4-dihydro-3H-pyrazol-3-one]	4 ± 1	0.13 ± 0.007		> 250	100	63.2	74.2	> 200	> 200	> 200	> 200				
O=C1/C(=N\Nc2cccc(Cl)c2)C(C(F)(F)C(F)(F)F)=NN1c1ccccc1 [6d, (4Z)-4-[2-(3-Chlorophenyl)hydrazinylidene]-5-(pentafluoroethyl)-2-phenyl-2,4-dihydro-3H-pyrazol-3-one]	7.8 ± 1.2			15.6 (≈ 37.4 µM)	100	93	63	> 200	> 200	> 200	200 (≈ 480 µM)				
Cc1ccc(N/N=C2\C(=O)NN=C2C(F)(F)C(F)(F)C(F)(F)C(F)(F)F)cc1 [8a, (4Z)-5-(Nonafluorobutyl)-4-[2-(4-methylphenyl)hydrazinylidene]-2,4-dihydro-3H-pyrazol-3-one]		0.43 ± 0.03	2.33 ± 0.15	250 (≈ 595 µM)	100			> 200	> 200	> 200	> 200		48.3 ± 2.2	62.9	40.4
CN[C@@H]1[C@H](O)[C@H](NC)[C@H]2O[C@@]3(O)C(=O)C[C@@H](C)O[C@H]3O[C@@H]2[C@H]1O [Spectinomycin, reference compound]				15.6 (≈ 46.9 µM)											
Cc1c(N(C)CS(=O)(=O)O)c(=O)n(-c2ccccc2)n1C [metamizole, reference compound]					100	34.2 ± 11.3	64.6 ± 22.5								
